# Assay results from patent US7297700B2, “Bicycloheteroaryl compounds as P2X7 modulators and uses thereof” (Renovis, Inc., priority 2005, dated 2007).
# System: IL-1β release from THP-1 cells
# Experiment: IL-1β Release Assay (Alternate Method), THP-1 cells
# Assay type: cell-based, human
# Details: at 0.3 μM; THP-1 cells
# Outline: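 IL-1β release, measured by ELISA, follows 45 min BzATP (250 uM final) stimulation of THP-1 cells given 30 min compound pretreatment. Cells were first primed 16 h with LPS and IFN-γ (100 ng/mL each), then 2 h with fresh LPS; inhibition expressed in percent after background correction.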
row,SMILES,IL-1β % inhibition
1,O=C(CC12CC3CC(CC(C3)C1)C2)Nc1ncnc2c1CCN(C(=O)c1ccccc1C(F)(F)F)C2 [Compound 270],+ (compound exhibited 0-25% inhibition at 0.3 μM)
2,O=C(CC12CC3CC(CC(C3)C1)C2)Nc1ncnc2c1CCN(C(=O)c1cc(C(F)(F)F)ccc1Cl)C2 [Compound 271],++++ (compound exhibited 75% or greater inhibition at 0.3 μM)
3,O=C(CC12CC3CC(CC(C3)C1)C2)Nc1ncnc2c1CCN(C(=O)c1c(F)cccc1Cl)C2 [Compound 272],++++ (compound exhibited 75% or greater inhibition at 0.3 μM)
4,Cc1nn(-c2ccccc2)nc1C(=O)N1CCc2c(ncnc2NC(=O)CC23CC4CC(CC(C4)C2)C3)C1 [Compound 273],++++ (compound exhibited 75% or greater inhibition at 0.3 μM)
5,O=C(CC12CC3CC(CC(C3)C1)C2)Nc1ncnc2c1CCN(C(=O)c1cccnc1Oc1ccccc1)C2 [Compound 274],+ (compound exhibited 0-25% inhibition at 0.3 μM)
6,COc1ccc(C(=O)N2CCc3c(ncnc3NC(=O)CC34CC5CC(CC(C5)C3)C4)C2)c(OC)c1 [Compound 275],+++ (compound exhibited 50-75% inhibition at 0.3 μM)
7,O=C(CC12CC3CC(CC(C3)C1)C2)Nc1ncnc2c1CCN(C(=O)c1ccc(F)cc1F)C2 [Compound 277],+++ (compound exhibited 50-75% inhibition at 0.3 μM)
8,Cc1ccccc1C(=O)N1CCc2c(ncnc2NC(=O)CC23CC4CC(CC(C4)C2)C3)C1 [Compound 278],+++ (compound exhibited 50-75% inhibition at 0.3 μM)
9,O=C(CC12CC3CC(CC(C3)C1)C2)Nc1ncnc2c1CCN(C(=O)c1cc(F)ccc1F)C2 [Compound 279],++++ (compound exhibited 75% or greater inhibition at 0.3 μM)
10,O=C(CC12CC3CC(CC(C3)C1)C2)Nc1ncnc2c1CCN(C(=O)c1ccccc1F)C2 [Compound 280],+++ (compound exhibited 50-75% inhibition at 0.3 μM)
11,O=C(CC12CC3CC(CC(C3)C1)C2)Nc1ncnc2c1CCN(C(=O)c1ccc(Cl)nc1)C2 [Compound 281],+ (compound exhibited 0-25% inhibition at 0.3 μM)
12,O=C(CC12CC3CC(CC(C3)C1)C2)Nc1ncnc2c1CCN(C(=O)c1cccc(Cl)c1Cl)C2 [Compound 282],++++ (compound exhibited 75% or greater inhibition at 0.3 μM)
13,Cc1cc(C(=O)N2CCc3c(ncnc3NC(=O)CC34CC5CC(CC(C5)C3)C4)C2)no1 [Compound 283],+++ (compound exhibited 50-75% inhibition at 0.3 μM)
14,Cc1cc(C(=O)N2CCc3c(ncnc3NC(=O)CC34CC5CC(CC(C5)C3)C4)C2)nn1C [Compound 284],++ (compound exhibited 25-50% inhibition at 0.3 μM)
15,Cc1cc(C(=O)N2CCc3c(ncnc3NC(=O)CC34CC5CC(CC(C5)C3)C4)C2)n(C)n1 [Compound 285],+ (compound exhibited 0-25% inhibition at 0.3 μM)
16,O=C(CC12CC3CC(CC(C3)C1)C2)Nc1ncnc2c1CCN(C(=O)c1cnn(-c3ccccc3)c1C(F)(F)F)C2 [Compound 286],+++ (compound exhibited 50-75% inhibition at 0.3 μM)
17,Cc1c(C(=O)N2CCc3c(ncnc3NC(=O)CC34CC5CC(CC(C5)C3)C4)C2)cnn1-c1ccccc1 [Compound 288],+ (compound exhibited 0-25% inhibition at 0.3 μM)
18,O=C(CC12CC3CC(CC(C3)C1)C2)Nc1ncnc2c1CCN(C(=O)c1ccc3ccccc3c1)C2 [Compound 290],++++ (compound exhibited 75% or greater inhibition at 0.3 μM)
19,Cc1ccc(C(=O)N2CCc3c(ncnc3NC(=O)CC34CC5CC(CC(C5)C3)C4)C2)cc1 [Compound 291],++++ (compound exhibited 75% or greater inhibition at 0.3 μM)
20,COc1ccccc1C(=O)N1CCc2c(ncnc2NC(=O)CC23CC4CC(CC(C4)C2)C3)C1 [Compound 292],+++ (compound exhibited 50-75% inhibition at 0.3 μM)
21,Cc1cc(C(=O)N2CCc3c(ncnc3NC(=O)CC34CC5CC(CC(C5)C3)C4)C2)c(C)o1 [Compound 293],+++ (compound exhibited 50-75% inhibition at 0.3 μM)
